In patent publication US8907089B2, “Fused heterocyclic ring derivative and use thereof” (Takeda Pharmaceutical Company Limited, priority 2009, dated 2014) one finds inhibition data, which are given here for 16 compounds.

In this test the test system is NIH-3T3/Gli reporter cells (Hedgehog signal, Gli reporter luciferase; Smo inhibitory action). Kind of test: Gli reporter luciferase assay in NIH-3T3/Gli reporter cells stimulated with mouse Shh-N end fragment. In kind it is cell-based. The note with it: NIH3T3; 1 μM compound; NIH-3T3/Gli reporter cells with mouse Shh-N end fragment culture supernatant, 48 hr; luciferase activity, control without compound as 100; read-out: inhibition rate (%) at 1 μM. An excerpt:
Inhibition of the Hedgehog signal transduction system can be measured, for example, by quantifying a decrease in the expression level of a reporter gene connected to the downstream of the Gli binding site based on the fluorescence intensity according to the following Experimental Example 1. Alternatively, it can be measured by quantifying the expression of Gli-1 mRNA in a cell extract by quantitative PCR method and the like. A compound that inhibits Hedgehog signal targets Smo, which can be confirmed, for example, by binding fluorescence-labeled Cyclopamine and a test compound to cells expressing Smo, measuring the fluorescence level of the cell, and comparing the value with that without addition of a test compound to find a decrease.
Gli reporter plasmid was constructed by inserting 8×Gli-binding site and chicken 8-crystalline promoter into the upstream of luc+ of pGL3 (Promega).
prepared in reference to the base sequence described in GenBank accession No.; X02187, and chicken genome DNA (Clontech) as a template. PCR reaction was performed using Pfu Turbo (Stratagene) and following the attached protocol. The obtained 108 bp fragment was digested with restriction enzymes BglII and HindIII, and inserted into BglII-HindIII site of pGL3 to give plasmid pGL3/δ-cry promoter.
As 8×Gli-binding site, a sequence containing eight 9-bp Gli bound consensus sequences (GACCACCCA) described in Yoon et al., J. Biol. Chem., vol. 273, pages 3496-3501 (1998) was prepared from synthetic DNA. That is, two synthetic DNAs,
were heat treated at 95° C. for 2 minutes, and incubated at 37° C. for 1 hr for annealing to give a double stranded DNA of the above-mentioned two synthetic DNAs. The obtained double stranded DNA was digested with restriction enzymes BglII and KpnI, and the obtained DNA fragment was inserted into BglII-KpnI site of pGL3/8-cry promoter to construct plasmid pGL3/8-cry promoter, 8×Gli binding site, i.e., Gli reporter plasmid. 2. Construction of plasmid for expression of mouse Shh-N end Fragment
HEK293 cells were grown in D-MEM medium (Invitrogen) containing 10% fetal bovine serum in a 10 cm dish and pcDNA3.1/mShh-N was introduced into the cells using FuGENE6 (Roche Applied Science). Thereafter, the HEK293 cells were cultured in a carbon dioxide gas incubator at 37° C. for 24 hours, and the medium was exchanged with D-MEM medium (Invitrogen) containing 2% fetal bovine serum. After culturing for 48 hr, a culture supernatant containing recombinant type mouse Shh-N end fragment was obtained by filtration using a filter ([…]).
Using D-MEM (Invitrogen) containing 10% fetal bovine serum, expression plasmid pcDNA3.1 and Gli reporter plasmid (pGL3/8-cry promoter, 8×Gli binding site) produced by the method of Experimental Example 1 were introduced into NIH-3T3 cells grown in a 10 cm dish by the use of FuGENE6 (Roche Applied Science).
After culture for 24 hr, the cells were recovered, suspended in D-MEM medium containing 10% fetal bovine serum and supplemented with Geneticin (Life Technologies Oriental, Inc.) to a final concentration of 500 μg/ml, diluted to 10^4 cells/ml, plated on a 96 well plate, and cultured in a carbon dioxide gas incubator at 37° C. to give Geneticin resistant transformed cell line.
The obtained transformed cell line was cultured in a 96 well plate, mouse Shh-N end fragment obtained in Experimental Example 3 was added, and NIH-3T3/Gli reporter cell, which is a cell line capable of induction of luciferase expression, was selected.
NIH-3T3/Gli reporter cells cultured in D-MEM (Invitrogen) containing 10% fetal bovine serum were plated in a 96 well white plate at 1×10^4 cells/well, and cultured overnight in a carbon dioxide gas incubator at 37° C. The medium was removed, a compound (50 μl) and culture supernatant of mouse Shh-N end fragment-expressing HEK293 (D-MEM medium containing 2% fetal bovine serum, 50 μl) were added, and the cells were cultured for 48 hr in a carbon dioxide gas incubator at 37° C. […]
Usually inhibition stands for the percentage by which the read-out fell short of the control. In the case of `CCOc1c(C(=O)NC2CCN(C(=O)CO)CC2)n(C)c2cc(CC)n(-c3cccc(F)c3)c(=O)c12` [Example 16, 3-ethoxy-6-ethyl-5-(3-fluorophenyl)-N-[1-(hydroxyacetyl)piperidin-4-yl]-1-methyl-4-oxo-4,5-dihydro-1H-pyrrolo[3,2-c]pyridine-2-carboxamide], the inhibition at 1 µM was 96%.
`CCOc1c(C(=O)NC2CCN(C(=O)CO)CC2)n(C)c2cc(CC)n(-c3ccc(C(F)(F)F)cc3)c(=O)c12` [Example 10, 3-ethoxy-6-ethyl-N-[1-(hydroxyacetyl)piperidin-4-yl]-1-methyl-4-oxo-5-[4-(trifluoromethyl)phenyl]-4,5-dihydro-1H-pyrrolo[3,2-c]pyridine-2-carboxamide]: the inhibition at 1 µM was determined as 96%.
With `CCc1cc2c(c(OCC(F)(F)F)c(C(=O)NC3CCN(C(=O)CO)CC3)n2C)c(=O)n1-c1cccc(F)c1` [Example 15, 6-ethyl-5-(3-fluorophenyl)-N-[1-(hydroxyacetyl)piperidin-4-yl]-1-methyl-4-oxo-3-(2,2,2-trifluoroethoxy)-4,5-dihydro-1H-pyrrolo[3,2-c]pyridine-2-carboxamide], the inhibition at 1 µM is 99%.
For `CCc1cc2c(c(OCC(F)(F)F)c(C(=O)NC3CCN(C(=O)CO)CC3)n2C)c(=O)n1-c1ccc(C(F)(F)F)cc1` [Example 9, 6-ethyl-N-[1-(hydroxyacetyl)piperidin-4-yl]-1-methyl-4-oxo-3-(2,2,2-trifluoroethoxy)-5-[4-(trifluoromethyl)phenyl]-4,5-dihydro-1H-pyrrolo[3,2-c]pyridine-2-carboxamide], the inhibition at 1 µM is 97%.
On to `CCc1cc2c(c(OCC(F)(F)F)c(C(=O)NC3CCN(C(=O)CO)CC3)n2C)c(=O)n1-c1ccc(F)cc1` [Example 20, 6-ethyl-5-(4-fluorophenyl)-N-[1-(hydroxyacetyl)piperidin-4-yl]-1-methyl-4-oxo-3-(2,2,2-trifluoroethoxy)-4,5-dihydro-1H-pyrrolo[3,2-c]pyridine-2-carboxamide], for which the inhibition at 1 µM was 96%.
As for `CCc1cc2c(c(OC(C)C)c(C(=O)NC3CCN(C(=O)CO)CC3)n2C)c(=O)n1-c1ccc(C(F)(F)F)cc1` [Example 11, 6-ethyl-N-[1-(hydroxyacetyl)piperidin-4-yl]-1-methyl-3-(1-methylethoxy)-4-oxo-5-[4-(trifluoromethyl)phenyl]-4,5-dihydro-1H-pyrrolo[3,2-c]pyridine-2-carboxamide], the inhibition at 1 µM amounted to 96%.
On to `CCc1cc2c(c(OC(C)C)c(C(=O)NC3CCN(C(=O)CO)CC3)n2C)c(=O)n1-c1ccccc1` [Example 4, 6-ethyl-N-[1-(hydroxyacetyl)piperidin-4-yl]-1-methyl-3-(1-methylethoxy)-4-oxo-5-phenyl-4,5-dihydro-1H-pyrrolo[3,2-c]pyridine-2-carboxamide], for which the inhibition at 1 µM came to 97%.
Turning to `CCOc1c(C(=O)NC2CCN(C(=O)CO)CC2)n(C)c2cc(CC)n(-c3ccc(OC)cc3)c(=O)c12` [Example 13, 3-ethoxy-6-ethyl-N-[1-(hydroxyacetyl)piperidin-4-yl]-5-(4-methoxyphenyl)-1-methyl-4-oxo-4,5-dihydro-1H-pyrrolo[3,2-c]pyridine-2-carboxamide], the inhibition at 1 µM stood at 97%.
With `CCOc1c(C(=O)NC2CCN(C(=O)CO)CC2)n(C)c2cc(CC)n(-c3ccc(F)cc3)c(=O)c12` [Example 21, 3-ethoxy-6-ethyl-5-(4-fluorophenyl)-N-[1-(hydroxyacetyl)piperidin-4-yl]-1-methyl-4-oxo-4,5-dihydro-1H-pyrrolo[3,2-c]pyridine-2-carboxamide], the inhibition at 1 µM turned out to be 96%.
For the compound `CCc1cc2c(c(OC(C)C)c(C(=O)NC3CCN(C(=O)CO)CC3)n2C)c(=O)n1-c1ccc(F)cc1` [Example 22, 6-ethyl-5-(4-fluorophenyl)-N-[1-(hydroxyacetyl)piperidin-4-yl]-1-methyl-3-(1-methylethoxy)-4-oxo-4,5-dihydro-1H-pyrrolo[3,2-c]pyridine-2-carboxamide], the inhibition at 1 µM was 97%.
As for `CCc1cc2c(c(OCC(F)(F)F)c(C(=O)NC3CCN(C(=O)CO)CC3)n2C)c(=O)n1-c1ccc(OC)cc1` [Example 12, 6-ethyl-N-[1-(hydroxyacetyl)piperidin-4-yl]-5-(4-methoxyphenyl)-1-methyl-4-oxo-3-(2,2,2-trifluoroethoxy)-4,5-dihydro-1H-pyrrolo[3,2-c]pyridine-2-carboxamide], the inhibition at 1 µM was 97%.
With `CCc1cc2c(c(OCC(F)(F)F)c(C(=O)NC3CCN(C(=O)CO)CC3)n2C)c(=O)n1-c1ccccc1` [Example 1, 6-ethyl-N-[1-(hydroxyacetyl)piperidin-4-yl]-1-methyl-4-oxo-5-phenyl-3-(2,2,2-trifluoroethoxy)-4,5-dihydro-1H-pyrrolo[3,2-c]pyridine-2-carboxamide] the figure was 98%.
`Cc1ccc(-n2c(C)cc3c(c(OCC(F)(F)F)c(C(=O)NC4CCN(C(=O)CO)CC4)n3C)c2=O)cc1` [Example 8, N-[1-(hydroxyacetyl)piperidin-4-yl]-1,6-dimethyl-5-(4-methylphenyl)-4-oxo-3-(2,2,2-trifluoroethoxy)-4,5-dihydro-1H-pyrrolo[3,2-c]pyridine-2-carboxamide]: the inhibition at 1 µM came to 97%.
With `CCOc1c(C(=O)NC2CCN(C(=O)CO)CC2)n(C)c2cc(CC)n(-c3ccccc3)c(=O)c12` [Example 3, 3-ethoxy-6-ethyl-N-[1-(hydroxyacetyl)piperidin-4-yl]-1-methyl-4-oxo-5-phenyl-4,5-dihydro-1H-pyrrolo[3,2-c]pyridine-2-carboxamide] the figure was 97%; with `CCc1cc2c(c(OC(C)C)c(C(=O)NC3CCN(C(=O)CO)CC3)n2C)c(=O)n1-c1cccc(F)c1` [Example 17, 6-ethyl-5-(3-fluorophenyl)-N-[1-(hydroxyacetyl)piperidin-4-yl]-1-methyl-3-(1-methylethoxy)-4-oxo-4,5-dihydro-1H-pyrrolo[3,2-c]pyridine-2-carboxamide], 95%; with `CCc1cc2c(c(OC(C)C)c(C(=O)NC3CCN(C(=O)CO)CC3)n2C)c(=O)n1-c1ccc(OC)cc1` [Example 14, 6-ethyl-N-[1-(hydroxyacetyl)piperidin-4-yl]-5-(4-methoxyphenyl)-1-methyl-3-(1-methylethoxy)-4-oxo-4,5-dihydro-1H-pyrrolo[3,2-c]pyridine-2-carboxamide], 96%.
